# Measured values as given in patent publication US7786141B2 (Vertex Pharmaceuticals Incorporated, priority 2004, dated 2010).
# pEC50: −log10 of the molar value. Where two headings read alike, the source gives them in different places.
# Columns and labels:
# M4 muscarinic receptor = biological target: T1, M4 muscarinic receptor (Homo sapiens, UniProt P08173); test: Functional mobilization of intracellular calcium (FLIPR) in M4-CHO cells; format: cell-based
# T1 construct: expressed in transfected cells; host or cells: CHO (M4-CHO)
# T1 sequence (P08173 1-479): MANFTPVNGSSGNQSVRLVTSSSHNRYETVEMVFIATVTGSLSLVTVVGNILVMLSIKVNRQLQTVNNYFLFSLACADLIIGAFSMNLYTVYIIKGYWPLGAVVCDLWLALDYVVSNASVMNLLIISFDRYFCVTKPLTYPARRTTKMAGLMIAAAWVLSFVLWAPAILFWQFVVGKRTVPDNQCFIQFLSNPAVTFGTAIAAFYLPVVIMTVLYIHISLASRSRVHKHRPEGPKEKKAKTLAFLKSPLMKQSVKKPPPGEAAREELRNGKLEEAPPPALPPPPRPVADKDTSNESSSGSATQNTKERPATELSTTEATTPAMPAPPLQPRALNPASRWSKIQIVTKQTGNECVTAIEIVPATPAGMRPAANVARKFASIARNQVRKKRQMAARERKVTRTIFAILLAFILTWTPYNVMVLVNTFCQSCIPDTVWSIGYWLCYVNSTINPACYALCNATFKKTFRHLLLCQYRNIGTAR
# Description: (§1) Functional Mobilization of Intracellular Calcium to Determine Muscarinic Receptor Activity:
# (§2) CHO cells expressing muscarinic receptors (M1 to M5) are grown as monolayers in tissue culture flasks at 37° C. in a humidified atmosphere containing 5% CO2 and passaged every 3-5 days. The growth media is Dulbecco's modified eagles medium (DMEM, Gibco Cat# 12430-054), containing 25 mM Hepes and supplemented with Fetal Bovine Serum (Hyclone, cat# SH30071.03), 0.1 mM of MEM non-essential amino acids (GIBCO, Cat# 11140-050), 1 mM MEM Sodium Pyruvate (GIBCO Cat# 11360-070) and 100 units/ml of Penicillin G and 100 μg/ml of Streptomycin (GIBCO Cat# 15140-122). The recombinant muscarinic receptor cell lines are grown under antibiotic pressure with media containing 25 μg/ml zeocin and 500 μg/ml G418 (M1-CHO), 4 μg/ml puromycin, 50 μg/ml zeocin and 2.5 μg/ml blasticidin (M2 and M4-CHO) or 50 μg/ml zeocin and 4 μg/ml puromycin (M3 and M5-CHO).
# (§3) Cells are harvested at 80-90% confluence using Versene (GIBCO Cat# 15040-066), collected by centrifugation and seeded 18-24 hrs prior to running the calcium assay at a density of 5,000 cells/well in back-walled, clear-bottomed 384-well plates (BD Biocoat, poly-D-lysine, Cat#356663). The day of the experiment, the cells are washed with a plate washer (Bioteck Instruments, ELX 405) using bath 1 buffer (140-mM NaCl, 4.5-mM KCl, 2-mM CaCl2, 1-mM MgCl2, 10-mM Hepes-Na, 10-mM Glucose, pH 7.4, with NaOH) containing 1 mM Probenecid. Next, the calcium dye Fluo-3 (25 μl/well of Fluo-3 AM at 4 μM, Molecular Probes F-1241, in Bath 1 buffer containing 1 mM Probenecid) is added to the 25 μl of Bath 1 remaining in each well after the plate wash and the dye is loaded at 37° C. in the tissue culture incubator for 60-90 min. The fluorescent dye is removed using the plate washer with Bath 1 containing 1 mM Probenecid, leaving 25 μl/well of this solution after the wash. Alternatively, cells can be loaded with the calcium indicator from Molecular Devices (Calcium 3 Assay Reagents, Cat # R7181) adding 5 μl of a 5× solution dye in Bath 1 containing 1 mM Probenecid (10 ml per dye flask cat# R7182 to generate a solution 20×) to 20 μl of the same buffer. After loading for 60 min, the experiment can be run without having to remove the dye.
# (§4) Compounds are prepared at a 2× fold concentration in a 96-well plate (round bottom, Costar Corning cat# 3656), by reconstituting the pre-spotted compounds in bath 1 containing 1 mM probenecid. The final concentration DMSO is 0.5%, and the amount of DMSO is normalized across the assay plate. To determine an agonist action of the compounds on muscarinic receptors, the reconstituted compounds are added (25 μl compound/well) to the cell assay plate (containing 25 μl/well) using the multi-channel robotic system of the FLIPR 3 Instrument (Molecular Devices, Sunnyvale, Calif.). To determine a functional inhibitory action of the compounds on muscarinic receptors, the reconstituted compounds are added (25 μl compound/well) to the assay plate and pre-incubated for 15 min prior to adding 25 μl of Carbachol at 3× the EC80 for each muscarinic subtype. Alternatively, the compounds can be co-applied simultaneously with the agonist. In both assay modes, the fluorescence is recorded for 60 sec (excitation wavelength is […] and emission wavelength 540 nm) using the FLIPR 3 instrument.
# (§5) The potency, efficacy and selectivity of the muscarinic compounds were evaluated by screening the compound activity across the whole family (M1 to M5 cells). Compounds were also screened for activity on other proteins such as other GPCRs and ion channels to determine selectivity on M4 receptors.
# M1 muscarinic receptor = biological target: T2, M1 muscarinic receptor (Homo sapiens, UniProt P11229); test: Functional mobilization of intracellular calcium (FLIPR) in M1-CHO cells; format: cell-based
# T2 construct: expressed in transfected cells; host or cells: CHO (M1-CHO)
# T2 sequence (P11229 1-460): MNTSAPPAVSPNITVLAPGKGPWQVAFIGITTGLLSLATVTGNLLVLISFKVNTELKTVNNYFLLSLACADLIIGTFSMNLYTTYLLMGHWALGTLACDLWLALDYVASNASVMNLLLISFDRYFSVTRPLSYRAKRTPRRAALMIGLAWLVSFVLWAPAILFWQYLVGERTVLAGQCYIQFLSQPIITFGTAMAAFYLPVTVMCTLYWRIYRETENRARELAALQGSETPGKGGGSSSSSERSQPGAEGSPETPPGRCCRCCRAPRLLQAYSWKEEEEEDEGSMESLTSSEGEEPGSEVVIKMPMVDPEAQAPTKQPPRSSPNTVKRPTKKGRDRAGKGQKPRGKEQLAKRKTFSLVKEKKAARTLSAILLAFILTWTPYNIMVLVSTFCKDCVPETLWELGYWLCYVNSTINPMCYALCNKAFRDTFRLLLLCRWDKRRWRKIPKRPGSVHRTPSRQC
# Description: as §1, §2, §3, §4, §5
# [1] = Table 4, 100% efficacy is the maximum response obtained with the Carbachol control
# [2] = Table 4, modulating M4 receptor
# [3] = Table 4, modulating M1 receptor
# [4] = M4 receptor, calcium mobilization
# [5] = M4 receptor, calcium mobilization, read-out: M4 Efficacy
# [6] = M1 receptor, calcium mobilization
# [7] = M1 receptor, calcium mobilization, read-out: M1 Efficacy
# [8] = Table 4, M4 receptor, calcium mobilization (FLIPR)
# [9] = Table 4, M1 receptor, calcium mobilization (FLIPR)
# [10] = M4-CHO cells, calcium mobilization (FLIPR)
# [11] = M4-CHO cells, calcium mobilization (FLIPR), read-out: M4 Efficacy
# [12] = M1-CHO cells, calcium mobilization (FLIPR)
# [13] = M1-CHO cells, calcium mobilization (FLIPR), read-out: M1 Efficacy
Compound,Emax (M4 muscarinic receptor; [1]) [%],M4 Activity (M4 muscarinic receptor; [2]),Emax (M1 muscarinic receptor; [1]) [%],M1 Activity (M1 muscarinic receptor; [3]),M4 Activity (M4 muscarinic receptor; [4]),Emax (M4 muscarinic receptor; [5]) [%],M1 Activity (M1 muscarinic receptor; [6]),Emax (M1 muscarinic receptor; [7]) [%],further results
CCOC(=O)N1CCC(N2CCC3(CC2)CN(C(C)=O)c2c(-c4ccoc4)cccc23)CC1 [compound 559],25 to 100,x (activity was measured to be greater than 5.0 μM),25 to 100,xxx (activity was measured to be less than 2.0 μM),–,–,–,–,–
Clc1ccc2c(c1)C1(CCN(C3CCOCC3)CC1)CO2 [compound 257],–,–,–,–,x (activity was measured to be greater than 1.0 μM),< 65,x (activity was measured to be greater than 1.0 μM),> 85,–
CCOC(=O)N1CCC(N2CCC3(CC2)CN(C(=O)C2CC2)c2ccc(F)cc23)CC1 [compound 136],–,–,–,–,xxx (activity was measured to be less than 0.1 μM),> 85,xxx (activity was measured to be less than 0.1 μM),> 85,–
CN(C)C(=O)N1CC2(CCN(C[C@H]3CCN(c4cnccn4)C3)CC2)c2cc(F)ccc21 [compound 660],> 100,xxx (activity was measured to be less than 2.0 μM),> 100,xxx (activity was measured to be less than 2.0 μM),–,–,–,–,–
CCOC(=O)N1C2CCC1CC(N1CCC3(CC1)c1ccccc1C(=O)C3(C)C)C2 (stereo not shown) [compound 278],–,–,–,–,xx (activity was measured to be between 0.1 μM and 1.0 μM),65 to 85,xx (activity was measured to be between 0.1 μM and 1.0 μM),65 to 85,–
CC(=O)N1CC2(CCN(C3CC4CCC(C3)N4C(=O)O[C@H]3CCOC3)CC2)c2ccccc21 (stereo partly shown) [compound 623],25 to 100,xxx (activity was measured to be less than 2.0 μM),25 to 100,xxx (activity was measured to be less than 2.0 μM),–,–,–,–,–
CC(=O)NC1CCC2(CCN(CCC3CCCN(C(=O)C(C)(C)C)C3)CC2)c2ccccc21 (stereo not shown) [compound 828],< 25,–,25 to 100,–,–,–,–,–,M4 Activity (M4 muscarinic receptor; [8]): x (activity was measured to be greater than 5.0 μM); M1 Activity (M1 muscarinic receptor; [9]): xxx (activity was measured to be less than 2.0 μM)
CCOC(=O)N1CCC(N2CCC3(CC2)CN(c2ccc(OC)cc2)c2ccc(F)cc23)CC1 [compound 908],25 to 100,–,25 to 100,–,–,–,–,–,M4 Activity (M4 muscarinic receptor; [8]): xxx (activity was measured to be less than 2.0 μM); M1 Activity (M1 muscarinic receptor; [9]): xxx (activity was measured to be less than 2.0 μM)
C/C=C\c1ccc2c(c1)C1(CCN(C3CCN(C(=O)OCC)CC3)CC1)CN2C(C)=O [compound 407],–,–,–,–,–,–,–,–,pEC50 (M4 muscarinic receptor; [10]): < 6.00; Emax (M4 muscarinic receptor; [11]): < 65%; pEC50 (M1 muscarinic receptor; [12]): 6.00 to 7.00; Emax (M1 muscarinic receptor; [13]): < 65%
CCOC(=O)N1CCC(N2CCC3(CC2)CN(C(=O)C(=O)CC)c2ccc(F)cc23)CC1 [compound 522],25 to 100,xxx (activity was measured to be less than 2.0 μM),> 100,xxx (activity was measured to be less than 2.0 μM),–,–,–,–,–
CC(=O)N(C)[C@H]1CC2(CCN(C[C@H]3C[C@H]4CC[C@H]3C4)CC2)c2ccccc21 [compound 190],–,–,–,–,x (activity was measured to be greater than 1.0 μM),65 to 85,x (activity was measured to be greater than 1.0 μM),> 85,–
CC(=O)N[C@@H]1CC2(CCN([C@@H]3C[C@H]4CC[C@@H]3C4)CC2)c2ccccc21 [compound 323],–,–,–,–,x (activity was measured to be greater than 1.0 μM),65 to 85,xx (activity was measured to be between 0.1 μM and 1.0 μM),65 to 85,–
CN(C)C(=O)N1CC2(CCN(C3CCN(C(=O)CC4CCCC4=O)CC3)CC2)c2cc(F)ccc21 (stereo not shown) [compound 544],< 25,xx (activity was measured to be between 2.0 μM and 5.0 μM),25 to 100,xx (activity was measured to be between 2.0 μM and 5.0 μM),–,–,–,–,–
Cc1ccc2c(c1)C1(CCN(CC3CCC4CCC3C4)CC1)CN2 (stereo not shown) [compound 241],–,–,–,–,x (activity was measured to be greater than 1.0 μM),> 85,xx (activity was measured to be between 0.1 μM and 1.0 μM),< 65,–
O=C(C1CC1)N1CC2(CCN(C3CC4CCC(C3)N4C(=O)OC3CCC3)CC2)c2cc(F)ccc21 (stereo not shown) [compound 379],–,–,–,–,–,–,–,–,pEC50 (M4 muscarinic receptor; [10]): 6.00 to 7.00; Emax (M4 muscarinic receptor; [11]): 65 to 85%; pEC50 (M1 muscarinic receptor; [12]): > 7.00; Emax (M1 muscarinic receptor; [13]): 65 to 85%
C1=C[C@H]2C[C@H]1C[C@@H]2CN1CCC2(CCc3ccccc32)CC1 [compound 263],–,–,–,–,xxx (activity was measured to be less than 0.1 μM),< 65,xxx (activity was measured to be less than 0.1 μM),< 65,–
CC1(C)C(=O)c2ccccc2C12CCN([C@@H]1C[C@@H]3CC[C@H]1C3)CC2 [compound 758],< 25,x (activity was measured to be greater than 5.0 μM),< 25,x (activity was measured to be greater than 5.0 μM),–,–,–,–,–
Cc1ccc2c(c1)C1(CCN(C3CC4CCC3C4)CC1)CN2C(=O)c1ccccn1 (stereo not shown) [compound 813],< 25,–,25 to 100,–,–,–,–,–,M4 Activity (M4 muscarinic receptor; [8]): x (activity was measured to be greater than 5.0 μM); M1 Activity (M1 muscarinic receptor; [9]): x (activity was measured to be greater than 5.0 μM)
CC(=O)N[C@@H]1CCC2(CCN([C@@H]3C[C@H]4CC[C@@H]3C4)CC2)c2ccccc21 [compound 506],25 to 100,xx (activity was measured to be between 2.0 μM and 5.0 μM),< 25,x (activity was measured to be greater than 5.0 μM),–,–,–,–,–
